According to US9233946B2, “Sulfonamide compounds” (KANCERA AB, priority 2010, dated 2016):

Tests used:
PFKFB3 = PFKFB3 (Homo sapiens (Human), UniProt Q16875); assay: PFKFB3 kinase activity, Method B (ADP-Glo Kinase Assay); assay type: biochemical
Source text: (§1) The PFKFB3 (placenta form) and PFKFB4 were produced and purified to homogeneity from E. coli at Biovitrum and at Sprint Bioscience. All other reagents were purchased from commercial sources. Two independent methods have been used for determination of the kinase activity of PFKFB3 (Method A and Method B). Method B has been used for determination of the kinase activity of PFKFB4.
(§2) Method B: The kinase activity of the bi-functional enzyme is readily quantified based on the production of ADP and F-2,6-P2 from ATP and F6P. The ADP is detected with a kit, ADP-Glo™ Kinase Assay^(a-e), from Promega. The assay is a luminescent ADP detection assay that measures kinase activity by quantifying the amount of ADP produced during the kinase reaction. The assay is performed in two steps; first, after the kinase reaction, an equal volume of ADP-Glo™ Reagent is added to terminate the kinase reaction and deplete the remaining ATP. Second, the Kinase Detection Reagent is added to simultaneously convert ADP to ATP and allow the newly synthesized ATP to be measured using a luciferase/luciferine reaction. The light generated is measured using a luminescence counter (1450 MicroBeta TriLux).
(§3) The assay was performed in white 384-well microtiter plates (OptiPlate, 6007299, PerkinElmer) by consecutive additions of 0.1 μL of a test compound solution (serial diluted in DMSO from compound DMSO stock solution and dispensed by acoustic dispensing from UV-star 384-well plate 7360153, VWR), 5 μL of enzyme solution and 5 μL of a substrate (fructose-6-phosphate (F6P) and adenosine-5′-triphosphate (ATP)) containing solution. […] Four reference dose response curves, one of them being the QC compound, were included in row O1-2, P1-2, and serial diluted as the test compounds. The final concentrations of all reagents in a total assay volume of 10.1 μL per well were: • 50 mM Tris-HCl at pH 8.0 • 10 mM MgCl2 • 5 mM Na2HPO4 at pH 8.0 • 81.48 nM PFKFB3 or 145 nM PFKFB4 • 8 μM ATP • 100 μM F6P (acid treated and then neutralized to remove any contaminating F-2,6-P2; see Van Schaftingen, 1984) • 0.005% Tween-20 • 1 mM dithiothreitol (DTT) • A test compound at various concentrations or controls (final DMSO concentration 0.99%)
(§4) Enzyme, compounds and controls were pre-incubated at room temperature for 15 min before the addition of substrate solution. The enzymatic reaction was allowed to proceed for 20 min (PFKFB3) or 40 min (PFKFB4) at room temperature. The reaction was terminated by the addition of 10 μL of ADP-Glo™ Reagent to all wells and the plate was incubated for 40 min at room temperature. After addition of 20 μL Kinase Detection Reagent to all wells the plate was incubated for 30 min at room temperature, followed by measurement in 1450 MicroBeta TriLux. All plates were centrifuged after each addition (room temperature, short spin, 500 RPM, Megafuge 1.0 Heraeus Instruments).
(§5) The inhibitory potency or IC50 values of test compounds on the kinase activity of PFKFB3 or PFKFB4 were calculated using a four-parameter model (model 205) in XLfit (IDBS ActivityBase XE Runner).

PFKFB4 = PFKFB4 (Homo sapiens (Human), UniProt Q16877); assay: PFKFB4 kinase activity, Method B (ADP-Glo Kinase Assay); assay type: biochemical
Source text: as §1, §2, §3, §4, §5

PANC-1 cells = assay: Quantification of F-2,6-P2 in PANC-1 cells; assay type: cell-based; conditions: Homo sapiens, PANC-1; read-out: IC50 based on quantification of F-2,6-P2
Source text: The relative kinase (formation) and phosphatase (degradation) activities of the bi-functional enzymes PFKFB3 and PFKFB4 control the intracellular levels of the regulator F-2,6-P2, which acts as an allosteric activator of glycolysis. The levels of F-2,6-P2 have been determined in three different cancer cell lines (MCF-7, PANC-1 and NUGC-3) using the van Shaftingen assay. The assay protocols described under “Methods for measurement of enzymatic activity of PFKFB3 and PFKFB4, Method A” have been adapted for the measurement of the inhibitory effect of compounds on the kinase activity of the various isoforms of the bifunctional enzyme (endogenously expressed) in the different cell lines. The modifications are described in the protocol below. All reagents were purchased from commercial sources or prepared inhouse.
Cell Line B (PANC-1, Human Pancreatic Carcinoma Cell Line)
• Cells: PANC-1 (ATCC-CRL-1469). Lot. no: 58564651. • Growth medium: Dulbecco's Modified Eagle's Medium, DMEM, ATCC-30-2002 10% FBS, Invitrogen, 10106-169
Cells were seeded at a concentration of 250 000 cells/mL in 100 μL growth medium (25 000 cells/well)
Starvation medium: DMEM/F12 without phenol red and glucose free, SVA, 991373 0.25% FBS, Invitrogen, 10106-169
Induction medium: DMEM/F12 without phenol red and glucose free, SVA, 991373 0.25% FBS, Invitrogen, 10106-169 (same as starvation medium)
Cells were seeded in 96-well Corning Costar tissue culture plates (CLS3595, Sigma-Aldrich) using the concentrations specified above for the three different cell lines A-C and incubated over night at 37° C. and 5% CO2. Row A was left empty. Next day the growth medium was discarded and replaced with 100 μL starvation medium. The plates were incubated for 18 h at 37° C. and 5% CO2. After 18 h of starvation the cells were induced with 100 μL compound or control solutions. Compounds were either tested in two concentrations (50 μM and 10 μM) or in dose response curves starting from 50 μM and the final DMSO concentration in assay plates was 0.5%. Also a dose response curve of a reference inhibitor was included in row H on each plate. All compounds were tested in duplicate plates. Compounds (in 96 well CLS 3365, Sigma-Aldrich) were serial diluted in DMSO from 10 mM compound DMSO stock solutions with Janus (automated liquid handling workstation from PerkinElmer). 5 μL were transferred to a Greiner deep well plate (736-0155, VWR) with 495 μL starvation medium. The final start concentration of compounds in the dilution plate was 100 μM, 1% DMSO. For compounds tested as single points, 10 mM compound solutions were diluted five fold in DMSO to 2 mM, followed by the transfer of 5 μL to separate dilution plates with 495 μL starvation medium. The final concentration of compounds in these dilution plates were 100 or 20 μM, respectively, and final concentration of DMSO was 1%. The plates were incubated at 37° C. and 5% CO2 for 1 h, followed by the addition of 10 μL 20 mM D-glucose in starvation medium. Controls, with and without 1 mM glucose, were included in row B. The final assay volume was 210 μL per well. After 2 h of incubation at 37° C. and 5% CO2, supernatants were discarded and the cells were lysed by the addition of 25 μL 250 mM NaOH. The plates were incubated at 37° C. and 5% CO2 for 5 min followed by an addition of 75 μL MilliQ dH2O. The supernatants were further diluted with 210 μL MilliQ dH2O to a final concentration of 20 mM NaOH. 200 μL were transferred to NUNC 96-well plates (7322661, VWR) and the plates were sealed and stored at −20° C. until analysis.
The amount of F-2,6-P2 was quantified based on the coupled enzymatic reaction described by Van Schaftingen. If necessary the samples were further diluted in 20 mM NaOH before quantification. Plates stored at −20° C. were thawed and the F-2,6-P2 quantification was initiated by transferring 40 μL from each well of the NUNC plate to the corresponding position in a trans-parent 96-well SpectraPlate-MB (6005649, PerkinElmer). […]

Chain of PFKFB4 (Q16877 whole entry): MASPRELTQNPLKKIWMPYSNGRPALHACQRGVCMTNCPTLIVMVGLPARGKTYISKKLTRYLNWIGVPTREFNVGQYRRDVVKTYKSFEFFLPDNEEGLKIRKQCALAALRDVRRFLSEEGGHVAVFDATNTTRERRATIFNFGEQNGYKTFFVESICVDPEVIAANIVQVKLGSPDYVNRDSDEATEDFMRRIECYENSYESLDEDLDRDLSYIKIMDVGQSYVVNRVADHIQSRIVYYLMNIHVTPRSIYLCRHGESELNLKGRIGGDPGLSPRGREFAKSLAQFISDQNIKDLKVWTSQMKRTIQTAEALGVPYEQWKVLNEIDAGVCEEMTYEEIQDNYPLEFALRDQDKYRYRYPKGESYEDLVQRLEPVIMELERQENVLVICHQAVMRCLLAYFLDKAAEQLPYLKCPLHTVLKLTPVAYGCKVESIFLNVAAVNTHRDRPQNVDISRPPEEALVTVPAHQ
Chain of PFKFB3 (Q16875 whole entry): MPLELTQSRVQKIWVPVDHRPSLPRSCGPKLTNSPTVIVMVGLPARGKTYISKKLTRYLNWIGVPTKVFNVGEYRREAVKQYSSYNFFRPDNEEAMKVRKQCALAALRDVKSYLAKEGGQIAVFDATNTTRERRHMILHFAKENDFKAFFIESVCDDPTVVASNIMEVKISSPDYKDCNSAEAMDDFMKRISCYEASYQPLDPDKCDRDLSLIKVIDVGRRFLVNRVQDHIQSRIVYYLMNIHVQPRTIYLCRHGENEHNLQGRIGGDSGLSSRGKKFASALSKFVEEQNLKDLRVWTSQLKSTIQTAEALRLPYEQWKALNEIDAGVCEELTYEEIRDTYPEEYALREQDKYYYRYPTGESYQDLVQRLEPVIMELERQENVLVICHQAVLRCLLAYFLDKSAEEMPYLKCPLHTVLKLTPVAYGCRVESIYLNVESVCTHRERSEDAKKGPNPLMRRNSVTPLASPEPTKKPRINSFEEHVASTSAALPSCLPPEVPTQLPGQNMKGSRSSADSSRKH

Row | SMILES | IC50 (PFKFB3) | IC50 (PFKFB4) | IC50 (PANC-1 cells)
1 | Cc1c(S(=O)(=O)Nc2cccc(-c3nnn[nH]3)c2)sc2ccc(F)cc12 [Example 43, 5-Fluoro-3-methyl-N-[3-(1H-tetrazol-5-yl)phenyl]-1-benzothiophene-2-sulfonamide] |  | 170 nM | 
2 | Cc1c(S(=O)(=O)Nc2ccc(O)c(C(=O)O)c2)sc2ccc(Cl)cc12 [Example 138, 5-{[(5-Chloro-3-methyl-1-benzothiophen-2-yl)sulfonyl]amino}-2-hydroxybenzoic acid] | 9030 nM |  | 
3 | Cc1ccc2sc(S(=O)(=O)Nc3cccc(-c4nnn[nH]4)c3)c(C)c2c1 [Example 33, 3,5-Dimethyl-N-[3-(1H-tetrazol-5-yl)phenyl]-1-benzothiophene-2-sulfonamide] | 130 nM |  | 
4 | O=S(=O)(Nc1cccc(-c2nnn[nH]2)c1)c1ccc(-c2ccccc2Cl)s1 [Example 26, 5-(2-Chlorophenyl)-N-[3-(1H-tetrazol-5-yl)phenyl]thiophene-2-sulfonamide] |  | 750 nM | 
5 | O=S(=O)(Nc1cccc(-c2nnn[nH]2)c1)c1ccc(-c2ccc(F)c(Cl)c2)s1 [Example 102, 5-(3-Chloro-4-fluorophenyl)-N-[3-(1H-tetrazol-5-yl)phenyl]thiophene-2-sulfonamide] |  | 660 nM | 
6 | O=S(=O)(Nc1cccc(-c2nnn[nH]2)c1)c1c(Cl)cc(C(F)(F)F)cc1Cl [Example 18, 2,6-Dichloro-N-[3-(1H-tetrazol-5-yl)phenyl]-4-(trifluoromethyl)benzenesulfonamide] |  | 510 nM | 
7 | Cc1c(S(=O)(=O)Nc2cccc(C(=O)O)c2)sc2c(Cl)cccc12 [Example 44, 3-{[(7-Chloro-3-methyl-1-benzothien-2-yl)sulfonyl]amino}benzoic acid] |  | 200 nM | 
8 | Cc1c(S(=O)(=O)Nc2cccc(C(=O)O)c2O)sc2ccc(Cl)cc12 [Example 134, 3-{[(5-Chloro-3-methyl-1-benzothiophen-2-yl)sulfonyl]amino}-2-hydroxybenzoic acid] |  | 180 nM | 
9 | Cc1ccc(-c2ccc(S(=O)(=O)Nc3cccc(-c4nnn[nH]4)c3)s2)cc1 [Example 27, 5-(4-Methylphenyl)-N-[3-(1H-tetrazol-5-yl)phenyl]thiophene-2-sulfonamide] |  | 480 nM | 13800 nM

Other lines, results leading:

Row | IC50 (PFKFB3) | IC50 (PFKFB4) | IC50 (PANC-1 cells) | SMILES
10 | 5180 nM |  |  | O=C(O)c1cccc(NS(=O)(=O)c2cc(-c3ccccc3O)c(Cl)s2)c1O [Example 137, 3-({[5-Chloro-4-(2-hydroxyphenyl)thiophen-2-yl]sulfonyl}amino)-2-hydroxybenzoic acid]
11 |  | 3720 nM |  | COc1ccc(-c2ccc(S(=O)(=O)Nc3cccc(-c4nnn[nH]4)c3)cc2)cc1 [Example 85, 4′-Methoxy-N-[3-(1H-tetrazol-5-yl)phenyl]biphenyl-4-sulfonamide]
12 |  | 390 nM |  | O=S(=O)(Nc1cccc(-c2nnn[nH]2)c1)c1cccc(-c2ccccc2)c1 [Example 16, N-[3-(1H-Tetrazol-5-yl)phenyl]biphenyl-3-sulfonamide]
13 |  | 420 nM |  | CSc1nccc(-c2ccc(S(=O)(=O)Nc3cccc(-c4nnn[nH]4)c3)s2)n1 [Example 21, 5-[2-(Methylthio)pyrimidin-4-yl]-N-[3-(1H-tetrazol-5-yl)phenyl]thiophene-2-sulfonamide]
14 | 2390 nM |  |  | O=S(=O)(Nc1cccc(-c2nnn[nH]2)c1)c1cc(Cl)c(Cl)cc1Cl [Example 71, 2,4,5-Trichloro-N-[3-(1H-tetrazol-5-yl)phenyl]benzenesulfonamide]
15 |  | 600 nM |  | O=S(=O)(Nc1cccc(-c2nnn[nH]2)c1)c1ccc(-c2ccc(F)cc2F)s1 [Example 101, 5-(2,4-Difluorophenyl)-N-[3-(1H-tetrazol-5-yl)phenyl]thiophene-2-sulfonamide]
16 |  | 1830 nM |  | O=S(=O)(Nc1cccc(-c2nnn[nH]2)c1)c1ccc(Br)cc1F [Example 57, 4-Bromo-2-fluoro-N-[3-(1H-tetrazol-5-yl)phenyl]benzenesulfonamide]
17 | 280 nM |  |  | Cc1c(S(=O)(=O)Nc2cccc(-c3nnn[nH]3)c2)sc2ccccc12 [Example 39, 3-Methyl-N-[3-(1H-tetrazol-5-yl)phenyl]-1-benzothiophene-2-sulfonamide]
18 |  | 140 nM |  | Cc1ccc2sc(S(=O)(=O)Nc3cccc(-c4nnn[nH]4)c3)cc2c1 [Example 40, 5-Methyl-N-[3-(1H-tetrazol-5-yl)phenyl]-1-benzothiophene-2-sulfonamide]
19 |  | 420 nM |  | COc1cccc2c(C)c(S(=O)(=O)Nc3cccc(C(=O)O)c3)sc12 [Example 42, 3-{[(7-Methoxy-3-methyl-1-benzothien-2-yl)sulfonyl]amino}benzoic acid]
20 |  | 660 nM | 11000 nM | COc1ccccc1-c1ccc(S(=O)(=O)Nc2cccc(-c3nnn[nH]3)c2)s1 [Example 24, 5-(2-Methoxyphenyl)-N-[3-(1H-tetrazol-5-yl)phenyl]thiophene-2-sulfonamide]
21 |  | 100 nM |  | Cc1c(S(=O)(=O)Nc2ncc(C(=O)O)s2)sc2ccc(C(C)C)cc12 [Example 7, 2-{[(5-Isopropyl-3-methyl-1-benzothien-2-yl)sulfonyl]amino}-1,3-thiazole-5-carboxylic acid]
